Measured values taken from patent US9265189B2, “Method for reducing damage by harmful organisms in corn cultivation” (SUMITOMO CHEMICAL COMPANY, LIMITED, priority 2012, dated 2016).

Tests used:
Assay type in all cases: in vivo
Agriotes spp. = test: Field test, corn plants damaged by Agriotes spp. after in-furrow spray (Example 1); conditions: Example section 1: clothianidin 50 g/ha, in-furrow spray of Dantop 50WG aqueous suspension 100 L/ha, corn DK 440, 35 days after application; non-treatment section 43
Procedure: Using a pneumatic seeder (disk furrow opener, manufactured by Gaspardo) equipped with a power sprayer (trade name: WJR 2525, manufactured by HONDA), a cultivated land was ditched at intervals of 75 cm to a depth of 3 cm from the soil surface, and the furrow was seeded with corn (Zea Mays, trade name: DK 440; hybrid variety, manufactured by Monsanto) at intervals of 13 cm. A seeding density of corn was 100000 seeds/ha. Then, the furrow was spray-treated with an aqueous suspension of a clothianidin water dispersible granule (using a 50% dispersible granule, trade name: Dantop 50WG, manufactured by Philagro) at 100 L/ha so that the application amount of clothianidin was 50 g/ha, and then a soil on the side of the furrow was gathered together to close the furrow. This was defined as an example section 1. For comparison, a non-treatment section, which was seeded with corn without application of a clothianidin water dispersible granule, was provided. […] 35 days after application of the clothianidin water dispersible granule, the number of plants of corn damaged by Agriotes spp. in each of the example section 1 and the non-treatment section was investigated, a damage plant rate was calculated in accordance with the following equation, and then an average damage plants rate of the four investigation sections was determined. […]

[1] = tested on: Diabrotica virgifera virgifera and Agriotes lineatus; test: Field test, corn lodged due to damage by Diabrotica virgifera virgifera and Agriotes lineatus (Example 4); conditions: Example section 4: clothianidin 80 g/ha, in-furrow spray of Dantop 50WG 125 L/ha, corn DKC 5143 seed treated with Maxim XL, 165 days after application; non-treatment section 23
Procedure: Ammonium phosphate (N:P:K=12:52:0) and urea (N:P:K=46:0:0), each of which being a fertilizer, were applied to the soil surface of a cultivated land at 100 kg/ha and 260 kg/ha, respectively, and the cultivated land was plowed. 24 days after fertilization, using a pneumatic seeder (disk furrow opener) equipped with a power sprayer, a cultivated land was ditched at intervals of 75 cm to a depth of 5 cm from the soil surface, and the furrow was seeded with corn (Zea Mays, variety name: DKC 5143; hybrid variety, manufactured by Monsanto). The cultivated land was seeded at intervals of 20 cm using, as a corn seed, one treated with a mixed agent of metalaxyl-M and fludioxonil (trade name: Maxim XL, manufactured by Syngenta). A seeding density of corn was 66667 seeds/ha. […] 165 days after application of the clothianidin water dispersible granule, the number of plants of corn lodged due to damage by Diabrotica virgifera virgifera and Agriotes lineatus in the furrows of the example section 4 and the non-treatment section, for which the number of plants of corn germinated was investigated, was investigated, a lodge rate was calculated in accordance with the following equation, and then an average lodge rate for the four investigation sections was determined. […]

[2] = tested on: Diabrotica virgifera virgifera and Agriotes lineatus; test: Field test, lodge rate, clothianidin in-furrow, herbicides plus cyprosulfamide on soil (Example 7); conditions: clothianidin 50 g/ha in-furrow spray 125 L/ha, thiuram-treated seed, 165 days after application; example in present tense
Excerpt: A chemical fertilizer (N:P:K=15:15:15) is applied to the soil surface of a cultivated land at 300 kg/ha, and the cultivated land is then plowed. 7 days after fertilization, for suppressing generation of weeds, the soil surface of the whole cultivated land is spray-treated with a mixed liquid containing thiencarbazone-methyl and isoxaflutole, each of which being a herbicide, and cyprosulfamide which is a safener at 150 L/ha so that the application amounts of thiencarbazone-methyl, isoxaflutole and cyprosulfamide are 9.2 g/ha, 23 g/ha and 15 g/ha, respectively. 21 days after fertilization, using a pneumatic seeder (disk furrow opener) equipped with a power sprayer, a cultivated land is ditched at intervals of 75 cm to a depth of 5 cm from the soil surface, and the furrow is seeded with corn (Zea Mays; hybrid variety). […] 165 days after application of the aqueous suspension of clothianidin, the number of plants of corn lodged due to damage by Diabrotica virgifera virgifera and Agriotes lineatus in the furrows of the treatment section and the non-treatment section, for which the number of plants of corn germinated is investigated, is investigated, a lodge rate is calculated in accordance with the following equation, and then an average lodge rate for the four investigation sections is determined.

CN/C(=N\[N+](=O)[O-])NCc1cnc(Cl)s1 [clothianidin]
Damage plant rate (%) (Agriotes spp.): 0%
Lodge rate (%) [1]: 4%
Lodge rate compared to non-treatment section [2]: low lodge rate as compared to the non-treatment section
